Structures are written as SMILES. A value given as a limit tells only on which side of the number the result lay.

T1 sequence (P15056 457-717 V600E limits assumed): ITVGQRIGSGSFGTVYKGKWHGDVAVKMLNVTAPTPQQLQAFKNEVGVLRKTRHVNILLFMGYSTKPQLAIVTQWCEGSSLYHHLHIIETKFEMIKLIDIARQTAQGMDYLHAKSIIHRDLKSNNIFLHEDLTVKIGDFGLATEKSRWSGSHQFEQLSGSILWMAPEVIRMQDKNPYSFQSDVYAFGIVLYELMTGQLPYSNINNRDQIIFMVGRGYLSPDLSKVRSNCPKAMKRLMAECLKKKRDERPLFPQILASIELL

This assay has as its target T1, BRAF (V600E) enzyme (Homo sapiens, UniProt P15056, V600E).
T1 construct: area encoding the BRAF kinase domain region, so that the protein contains an N-terminal Flag; made in house; host or cells: SF-21 insect cells, recombinant baculovirus BAC-V600E
Briefly: Determination of BRAF (V600E) kinase inhibitory activity ([γ-32P]ATP, GST-MEK1 (K96R) substrate). Particulars: read-out: BRAF (V600E) kinase inhibitory rate. Type of assay: biochemical. The protocol: Human BRAF gene was cloned by PCR using human Testis cDNA library (Clontech) as a template. The primer used for PCR was prepared from base sequence (Genbank Accession NM_004333) information of BRAF gene by adding a base sequence encoding flag peptide and a recognition sequence of the restriction enzyme to area encoding the BRAF kinase domain region, so that the protein contains an N-terminal Flag. The primer base sequence is shown below.
The PCR reaction was conducted using Pyrobest (Takara Shuzo Co., Ltd). The obtained PCR product was electrophoresed on agarose gel (1%), the DNA fragment amplified by PCR was recovered from the gel, and then digested with restriction enzymes EcoRI and SalI. The DNA treated with the restriction enzymes was electrophoresed on agarose gel (1%), and the obtained DNA fragment was recovered and ligated to plasmid pFASTBAC1 (Invitrogen) digested with restriction enzymes EcoRI and SalI to give expression plasmid pFB-BRAF, and the base sequence of the insert fragment was confirmed. In addition, mutation was introduced into V600E using a Quick change Site Directed Mutagenesis kit (Stratagene). The nucleotide sequences of the primers used are shown in the following.
SF-21 cells were sown at 1×10^6 cells/mL to Sf-900II SFM medium (1 L, Invitrogen) containing 10% fetal bovine serum (Trace), 50 mg/L Gentamicin (Invitrogen) and 0.1% Pluronic F-68 (Invitrogen), and shaking culture was performed using a 2 L volume Erlenmeyer flask at 27° C., 100 rpm. After culturing for 24 hrs, recombinant baculovirus BAC-V600E (13.4 mL) was added to the mixture, and the mixture was further cultured for 3 days. The culture medium was centrifuged at 2,000 rpm for 5 min to give virus-infected cells. The infected cells were washed with a phosphate buffered saline (Invitrogen), centrifuged under the same conditions, and the cells were preserved at −80° C. The cryopreserved cells were thawed in ice, suspended in buffer A (50 mM Tris buffer (30 mL, pH 7.4) containing 20% glycerol, 0.15 M NaCl) supplemented with Complete Protease Inhibitor (Boehringer), and ruptured 3 times with a Polytron homogenizer (Kinematica) at 20,000 rpm for 30 sec. The ruptured medium was clarified by centrifugation at 40,000 rpm for 30 min and filtered with a 0.45 μm filter. The filtrate was passed through a column packed with Anti-FLAG M2 Affinity Gel (4 mL, Sigma) at a flow rate of about 0.5 mL/min. The column was washed with buffer A, and eluted with buffer A containing 100 μg/mL of FLAG peptide. The buffer of this concentrate was exchanged using NAP25 column (Amersham Bioscience) equilibrated with buffer A and the fractions were cryopreserved at −80° C.
A test compound (2.5 μl) dissolved in dimethyl sulfoxide (DMSO) was added to 37.5 μl of a reaction solution (25 mM HEPES (pH 7.5), 10 mM magnesium acetate, 1 mM dithiothreitol) containing BRAF (V600E) enzyme (30 ng) and recombinant type protein GST-MEK1 (K96R) 250 ng, and the mixture was incubated at room temperature for 10 min. ATP solution (10 μl) (2.5 μM ATP, 0.1 μCi [γ-^32P]ATP) was added to the obtained mixture, and the mixture was reacted at room temperature for 20 min. The reaction was quenched by adding 50 μL of ice-cooled 20% trichloroacetic acid (Wako Pure Chemical Industries, Ltd.). The reaction solution was allowed to stand at 4° C. for 30 min, and the acid-precipitable fraction was transferred to GF/C filter plate (Millipore Corporation) using cell harvester (PerkinElmer). The plate was dried at 45° C. for 60 min, and 40 μL of MicroScinti 0 (PerkinElmer) was added thereto. The radioactivity was measured using TopCount (PerkinElmer). The kinase inhibitory rate (%) of the test compound was calculated by the following formula: Inhibitory rate(%)=(1−(count of test compound−blank)÷(control−blank))×100
The count of the solution reacted without addition of the compound was used as a “control”, and the count of the solution without the compound and enzyme was used as a “blank”. […]
For the compound `CNc1nccc(Nc2cn3nc(Oc4cccc(NC(=O)c5cccc(C(F)(F)F)c5)c4)ccc3n2)n1` [Example 70, N-{3-[(2-{[2-(methylamino)pyrimidin-4-yl]amino}imidazo[1,2-b]pyridazin-6-yl)oxy]phenyl}-3-(trifluoromethyl)benzamide], the inhibition at 1 µM is at least 90%.
The result for `O=C(Nc1cccc(Oc2ccc3nc(NC(=O)C4CC4)cn3n2)c1)c1cccc(C(F)(F)F)c1` [Example 319, N-[3-({2-[(cyclopropylcarbonyl)amino]imidazo[1,2-b]pyridazin-6-yl}oxy)phenyl]-3-(trifluoromethyl)benzamide] reads at least 90%.
The result for `Cc1ccc(Oc2ccc3nc(NC(=O)C4CC4)cn3n2)cc1NC(=O)c1cccc(C(C)(C)C#N)c1` [Example 330, 3-(1-cyano-1-methylethyl)-N-[5-({2-[(cyclopropylcarbonyl)amino]imidazo[1,2-b]pyridazin-6-yl}oxy)-2-methylphenyl]benzamide] reads at least 90%.
As for `CN(C)CC(=O)Nc1cn2nc(Oc3cccc(NC(=O)c4cccc(C(F)(F)F)c4)c3)ccc2n1` [Example 398, N-[3-({2-[(N,N-dimethylglycyl)amino]imidazo[1,2-b]pyridazin-6-yl}oxy)phenyl]-3-(trifluoromethyl)benzamide], the inhibition at 1 µM was at least 90%.
On to `O=C(Nc1cccc(Sc2ccc3nc(NC(=O)C4CC4)cn3n2)c1)c1cccc(C(F)(F)F)c1` [Example 427, N-[3-({2-[(cyclopropylcarbonyl)amino]imidazo[1,2-b]pyridazin-6-yl}thio)phenyl]-3-(trifluoromethyl)benzamide], for which the inhibition at 1 µM was at least 90%.
The result for `O=C(Nc1cccc(Oc2ccc3nc(NC(=O)C4CC4)cn3n2)c1)Nc1cccc(C(F)(F)F)c1` [Example 431, N-{6-[3-({[3-(trifluoromethyl)phenyl]carbamoyl}amino)phenoxy]imidazo[1,2-b]pyridazin-2-yl}cyclopropanecarboxamide] reads at least 90%.

For the origin of these results see patent publication US8034812B2, “Imidazopyridazine derivative having kinase inhibitory activity and pharmaceutical agent thereof” (Takeda Pharmaceutical Company Limited, priority 2006, dated 2011).
